{
  "source": "patent US20260007681A1",
  "about": "“INDOLE DERIVATIVES AS ESTROGEN RECEPTOR DEGRADERS” (REGENTS OF THE UNIVERSITY OF MICHIGAN, priority 2022, published 2026)",
  "data": [
    {"target": "CRBN/DDB1 (Homo sapiens (Human), UniProt Q96SW2)", "sequence (Q96SW2 whole entry)": "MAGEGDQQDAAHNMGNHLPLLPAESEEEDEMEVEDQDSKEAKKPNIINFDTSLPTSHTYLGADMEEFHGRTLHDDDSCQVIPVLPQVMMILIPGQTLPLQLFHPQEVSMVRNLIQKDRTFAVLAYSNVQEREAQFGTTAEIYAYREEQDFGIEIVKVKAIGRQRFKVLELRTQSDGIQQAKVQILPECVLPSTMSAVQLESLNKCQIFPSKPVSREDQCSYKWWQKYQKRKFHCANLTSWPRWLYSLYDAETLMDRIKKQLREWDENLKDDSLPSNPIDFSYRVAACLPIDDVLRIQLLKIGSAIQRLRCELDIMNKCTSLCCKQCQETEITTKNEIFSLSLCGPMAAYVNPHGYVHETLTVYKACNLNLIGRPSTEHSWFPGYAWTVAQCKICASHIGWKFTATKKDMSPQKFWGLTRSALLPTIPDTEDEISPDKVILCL", "sequence (Q16531 whole entry partner)": "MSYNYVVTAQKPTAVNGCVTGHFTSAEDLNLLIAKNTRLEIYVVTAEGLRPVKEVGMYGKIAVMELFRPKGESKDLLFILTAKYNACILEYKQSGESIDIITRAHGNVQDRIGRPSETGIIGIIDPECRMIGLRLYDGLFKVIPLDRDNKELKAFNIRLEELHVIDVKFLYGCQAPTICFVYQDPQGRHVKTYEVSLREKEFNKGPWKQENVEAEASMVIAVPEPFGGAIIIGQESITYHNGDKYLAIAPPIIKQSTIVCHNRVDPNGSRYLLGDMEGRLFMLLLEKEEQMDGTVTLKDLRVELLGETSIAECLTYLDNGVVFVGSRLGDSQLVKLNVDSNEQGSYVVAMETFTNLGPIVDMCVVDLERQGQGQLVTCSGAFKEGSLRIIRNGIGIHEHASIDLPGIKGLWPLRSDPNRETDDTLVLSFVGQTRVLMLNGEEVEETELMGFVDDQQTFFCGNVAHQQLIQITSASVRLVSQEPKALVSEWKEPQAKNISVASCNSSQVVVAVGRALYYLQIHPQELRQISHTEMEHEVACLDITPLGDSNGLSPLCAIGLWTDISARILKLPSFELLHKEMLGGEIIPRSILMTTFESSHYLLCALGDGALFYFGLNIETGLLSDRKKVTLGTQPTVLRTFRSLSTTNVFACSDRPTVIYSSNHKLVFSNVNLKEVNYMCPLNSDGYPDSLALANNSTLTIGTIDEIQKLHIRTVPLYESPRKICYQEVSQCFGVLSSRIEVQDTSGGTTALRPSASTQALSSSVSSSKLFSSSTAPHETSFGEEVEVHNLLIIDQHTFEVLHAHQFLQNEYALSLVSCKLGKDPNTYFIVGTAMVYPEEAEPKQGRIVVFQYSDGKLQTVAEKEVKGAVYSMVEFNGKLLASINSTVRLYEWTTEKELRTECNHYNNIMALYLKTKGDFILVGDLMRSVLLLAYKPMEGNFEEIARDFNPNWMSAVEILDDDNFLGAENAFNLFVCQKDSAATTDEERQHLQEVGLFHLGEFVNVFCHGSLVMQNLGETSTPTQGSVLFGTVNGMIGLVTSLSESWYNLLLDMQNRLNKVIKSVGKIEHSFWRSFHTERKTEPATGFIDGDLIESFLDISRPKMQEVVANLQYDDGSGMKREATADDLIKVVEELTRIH", "type": "binding", "conditions": "His tagged CRBN+DDB-DLS7+CXU4, Cy5-labeled Thalidomide probe, one hour incubation; read-out: CRBN HTRF IC50", "method": "The binding potency was determined using H-TRF assay technology (Perkin Elmer). Compounds were serially diluted in DMSO and 0.2 μL volume was transferred to white 384-well plate.", "units": {"IC50": "nM"}, "values": [
      {"smiles": "CS(=O)(=O)N1CCc2c([nH]c3ccccc23)[C@H]1c1c(F)cc(N2CCC(CN3CCN4c5cc6c(cc5OC[C@@H]4C3)C(=O)N([C@H]3CCC(=O)NC3=O)C6)CC2)cc1F", "note": "[Compound A17, (S)-3-((S)-3-((1-(3,5-difluoro-4-((R)-2-(methylsulfonyl)-2,3,4,9-tetrahydro-1H-pyrido[3,4-b]indol-1-yl)phenyl)piperidin-4-yl)methyl)-8-oxo-1,2,3,4,4a,5,8,10-octahydro-9H-pyrazino[1′,2′:4,5][1,4]oxazino[2,3-f]isoindol-9-yl)piperidine-2,6-dione]", "IC50": "> 5000"},
      {"smiles": "CS(=O)(=O)N1CCc2c([nH]c3ccccc23)[C@H]1c1c(F)cc(N2CCC3(CCN(C(=O)CN4Cc5cc6c(cc5C4)C(=O)N(C4CCC(=O)NC4=O)C6=O)CC3)CC2)cc1F", "note": "(stereo partly drawn) [Compound A8, 6-(2-(9-(3,5-difluoro-4-((R)-2-(methylsulfonyl)-2,3,4,9-tetrahydro-1H-pyrido[3,4-b]indol-1-yl)phenyl)-3,9-diazaspiro[5.5]undecan-3-yl)-2-oxoethyl)-2-(2,6-dioxopiperidin-3-yl)-6,7-dihydropyrrolo[3,4-f]isoindole-1,3(2H,5H)-dione]", "IC50": "> 5000"},
      {"smiles": "C[C@@H]1Cc2c([nH]c3ccccc23)[C@@H](c2cnc(N3CCC4(CC3)CC(CN3CCN(c5ccc(NC6CCC(=O)NC6=O)cc5F)CC3)C4)nc2)N1CC(F)F", "note": "(stereo partly drawn) [Compound A16, 3-((4-(4-((7-(5-((1R,3R)-2-(2,2-difluoroethyl)-3-methyl-2,3,4,9-tetrahydro-1H-pyrido[3,4-b]indol-1-yl)pyrimidin-2-yl)-7-azaspiro[3.5]nonan-2-yl)methyl)piperazin-1-yl)-3-fluorophenyl)amino)piperidine-2,6-dione]", "IC50": "50 to 500"},
      {"smiles": "CS(=O)(=O)N1CCc2c([nH]c3ccccc23)[C@H]1c1c(F)cc(N2CCC3(CCN(C(=O)CN4Cc5cc6c(cc5C4)C(=O)N(C4CCC(=O)NC4=O)C6=O)CC3)CC2)cc1F", "note": "(stereo partly drawn) [Compound A21, 6-(2-(9-(3,5-difluoro-4-((R)-2-(methylsulfonyl)-2,3,4,9-tetrahydro-1H-pyrido[3,4-b]indol-1-yl)phenyl)-3,9-diazaspiro[5.5]undecan-3-yl)-2-oxoethyl)-2-(2,6-dioxopiperidin-3-yl)-6,7-dihydropyrrolo[3,4-f]isoindole-1,3(2H,5H)-dione]", "IC50": "> 5000"},
      {"smiles": "CS(=O)(=O)N1CCc2c([nH]c3ccccc23)[C@@H]1c1c(F)cc(N2CCC3(CCN(C(=O)CN4Cc5cc6c(cc5C4)C(=O)N(C4CCC(=O)NC4=O)C6=O)CC3)CC2)cc1F", "note": "(stereo partly drawn) [Compound A20, 6-(2-(9-(3,5-difluoro-4-((S)-2-(methylsulfonyl)-2,3,4,9-tetrahydro-1H-pyrido[3,4-b]indol-1-yl)phenyl)-3,9-diazaspiro[5.5]undecan-3-yl)-2-oxoethyl)-2-(2,6-dioxopiperidin-3-yl)-6,7-dihydropyrrolo[3,4-f]isoindole-1,3(2H,5H)-dione]", "IC50": "> 5000"},
      {"smiles": "C[C@@H]1Cc2c([nH]c3ccccc23)[C@@H](c2cnc(N3CCC4(CC3)CC(CN3CCN5c6ccc7c(c6OC[C@@H]5C3)CN(C3CCC(=O)NC3=O)C7=O)C4)nc2)N1CC(F)F", "note": "(stereo partly drawn) [Compound A6, 3-((S)-7-((7-(5-((1R,3R)-2-(2,2-difluoroethyl)-3-methyl-2,3,4,9-tetrahydro-1H-pyrido[3,4-b]indol-1-yl)pyrimidin-2-yl)-7-azaspiro[3.5]nonan-2-yl)methyl)-1-oxo-1,3,5,5a,6,7,8,9-octahydro-2H-pyrazino[1′,2′:4,5][1,4]oxazino[2,3-e]isoindol-2-yl)piperidine-2,6-dione]", "IC50": "< 50"},
      {"smiles": "C[C@@H]1Cc2c([nH]c3ccccc23)[C@@H](c2cnc(OC3CC(C(=O)N4CCC(N5Cc6cc7c(cc6C5)C(=O)N(C5CCC(=O)NC5=O)C7=O)CC4)C3)nc2)N1CC(F)F", "note": "(stereo partly drawn) [Compound A18, 6-(1-((1R,3r)-3-((5-((1R,3R)-2-(2,2-difluoroethyl)-3-methyl-2,3,4,9-tetrahydro-1H-pyrido[3,4-b]indol-1-yl)pyrimidin-2-yl)oxy)cyclobutane-1-carbonyl)piperidin-4-yl)-2-(2,6-dioxopiperidin-3-yl)-6,7-dihydropyrrolo[3,4-f]isoindole-1,3(2H,5H)-dione]", "IC50": "50 to 500"},
      {"smiles": "COc1ccc(C(=O)N2CCC(CN3CCN(c4ncc([C@@H]5c6[nH]c7ccccc7c6C[C@@H](C)N5CC(F)F)cn4)CC3)CC2)cc1N1CCC(=O)NC1=O", "note": "[Compound A7, 1-(5-(4-((4-(5-((1R,3R)-2-(2,2-difluoroethyl)-3-methyl-2,3,4,9-tetrahydro-1H-pyrido[3,4-b]indol-1-yl)pyrimidin-2-yl)piperazin-1-yl)methyl)piperidine-1-carbonyl)-2-methoxyphenyl) dihydropyrimidine-2,4(1H,3H)-dione]", "IC50": "500 to 5000"},
      {"smiles": "Cc1nn(C2CCC(=O)NC2=O)c2ccc(N3CCN(CC4CC5(CCN(c6ncc([C@@H]7c8[nH]c9ccccc9c8C[C@@H](C)N7CC(C)(C)F)cn6)CC5)C4)CC3)cc12", "note": "(stereo partly drawn) [Compound A15, 3-(5-(4-((7-(5-((1R,3R)-2-(2-fluoro-2-methylpropyl)-3-methyl-2,3,4,9-tetrahydro-1H-pyrido[3,4-b]indol-1-yl)pyrimidin-2-yl)-7-azaspiro[3.5]nonan-2-yl)methyl)piperazin-1-yl)-3-methyl-1H-indazol-1-yl)piperidine-2,6-dione]", "IC50": "< 50"},
      {"smiles": "C[C@@H]1Cc2c([nH]c3ccccc23)[C@@H](c2cnc(N3C[C@@H]4[C@H](CN5CCN6c7cc8c(cc7OC[C@@H]6C5)C(=O)N([C@H]5CCC(=O)NC5=O)C8)[C@@H]4C3)nc2)N1CC(C)(C)F", "note": "[Compound A13, (S)-3-((S)-3-(((1R,5S,6R)-3-(5-((1R,3R)-2-(2-fluoro-2-methylpropyl)-3-methyl-2,3,4,9-tetrahydro-1H-pyrido[3,4-b]indol-1-yl)pyrimidin-2-yl)-3-azabicyclo[3.1.0]hexan-6-yl)methyl)-8-oxo-1,2,3,4,4a,5,8,10-octahydro-9H-pyrazino[1′,2′:4,5][1,4]oxazino[2,3-f]isoindol-9-yl)piperidine-2,6-dione]", "IC50": "50 to 500"},
      {"smiles": "C[C@@H]1Cc2c([nH]c3ccccc23)[C@@H](c2cnc(N3CC[C@@H](CN4CCN5c6ccc7c(c6OC[C@@H]5C4)CN(C4CCC(=O)NC4=O)C7=O)C3)nc2)N1CC(F)F", "note": "(stereo partly drawn) [Compound A14, 3-((S)-7-(((S)-1-(5-((1R,3R)-2-(2,2-difluoroethyl)-3-methyl-2,3,4,9-tetrahydro-1H-pyrido[3,4-b]indol-1-yl)pyrimidin-2-yl)pyrrolidin-3-yl)methyl)-1-oxo-1,3,5,5a,6,7,8,9-octahydro-2H-pyrazino[1′,2′:4,5][1,4]oxazino[2,3-e]isoindol-2-yl)piperidine-2,6-dione]", "IC50": "< 50"},
      {"smiles": "C[C@@H]1Cc2c([nH]c3ccccc23)[C@@H](c2cnc(N3CCC4(CC3)CC(CN3CCC5(CC3)COc3cc6c(cc35)CN(C3CCC(=O)NC3=O)C6=O)C4)nc2)N1CC(F)F", "note": "(stereo partly drawn) [Compound A26, 3-(1′-((7-(5-((1R,3R)-2-(2,2-difluoroethyl)-3-methyl-2,3,4,9-tetrahydro-1H-pyrido[3,4-b]indol-1-yl)pyrimidin-2-yl)-7-azaspiro[3.5]nonan-2-yl)methyl)-7-oxo-5,7-dihydro-2H,6H-spiro[furo[2,3-f]isoindole-3,4′-piperidin]-6-yl)piperidine-2,6-dione]", "IC50": "500 to 5000"}
    ]}
  ]
}
